Source: PubChem BioAssay (NCI)
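Dose response: 5 concentrations. Exposure: 48 h. Format: 96-well plates. Endpoint: linear interpolation; highest concentration if not reached. Here, GI50 denotes the concentration required for 50% inhibition of growth. TGI: total growth inhibition.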

Columns and labels:
Test in all cases: NCI-60 cell line screen, 48 h
EKVX NSCLC = system: EKVX NSCLC
HCT-15 colon = system: HCT-15 colon
SF-268 CNS = system: SF-268 CNS
K-562 leukemia = system: K-562 leukemia
COLO 205 colon = system: COLO 205 colon
MDA-MB-231 breast = system: MDA-MB-231 breast
SF-295 CNS = system: SF-295 CNS
786-0 renal = system: 786-0 renal
TK-10 renal = system: TK-10 renal
OVCAR-8 ovarian = system: OVCAR-8 ovarian
SNB-19 CNS = system: SNB-19 CNS
SF-539 CNS = system: SF-539 CNS
M14 melanoma = system: M14 melanoma
NCI-H460 lung = system: NCI-H460 lung
HCC-2998 colon = system: HCC-2998 colon
NCI-H23 lung = system: NCI-H23 lung
CCRF-CEM leukemia = system: CCRF-CEM leukemia
SR leukemia = system: SR leukemia
HCT-116 colon = system: HCT-116 colon
UACC-62 melanoma = system: UACC-62 melanoma
NCI/ADR-RES ovarian = system: NCI/ADR-RES ovarian
OVCAR-5 ovarian = system: OVCAR-5 ovarian
KM12 colon = system: KM12 colon
PC-3 prostate = system: PC-3 prostate
SN12C renal = system: SN12C renal
HOP-62 NSCLC = system: HOP-62 NSCLC
U251 CNS = system: U251 CNS
MOLT-4 leukemia = system: MOLT-4 leukemia
HS 578T breast = system: HS 578T breast
UO-31 renal = system: UO-31 renal
IGROV1 ovarian = system: IGROV1 ovarian
RXF 393 renal = system: RXF 393 renal
SNB-75 CNS = system: SNB-75 CNS
SK-MEL-28 melanoma = system: SK-MEL-28 melanoma
LOX IMVI melanoma = system: LOX IMVI melanoma
DU-145 prostate = system: DU-145 prostate
SW-620 colon = system: SW-620 colon
OVCAR-4 ovarian = system: OVCAR-4 ovarian
HL-60(TB) leukemia = system: HL-60(TB) leukemia
UACC-257 melanoma = system: UACC-257 melanoma
RPMI-8226 leukemia = system: RPMI-8226 leukemia
SK-MEL-5 melanoma = system: SK-MEL-5 melanoma
A498 renal = system: A498 renal
SK-OV-3 ovarian = system: SK-OV-3 ovarian
A549 NSCLC = system: A549 NSCLC
HOP-92 NSCLC = system: HOP-92 NSCLC
BT-549 breast = system: BT-549 breast
CAKI-1 renal = system: CAKI-1 renal
SK-MEL-2 melanoma = system: SK-MEL-2 melanoma
ACHN renal = system: ACHN renal
HT29 colon = system: HT29 colon

N#Cc1ccc2c(c1)C(=O)c1c-2n(CCCN)c(=O)c2cc([N+](=O)[O-])ccc12
GI50 (EKVX NSCLC): 0.537 µM | TGI (EKVX NSCLC): 1.93 µM | GI50 (HCT-15 colon): 0.411 µM | TGI (HCT-15 colon): 1.83 µM | GI50 (SF-268 CNS): 0.0846 µM | TGI (SF-268 CNS): 1.51 µM | GI50 (K-562 leukemia): 0.185 µM | TGI (K-562 leukemia): 3.97 µM | GI50 (COLO 205 colon): 0.518 µM | TGI (COLO 205 colon): 2.09 µM | GI50 (MDA-MB-231 breast): 1.5 µM | TGI (MDA-MB-231 breast): 3.04 µM | GI50 (SF-295 CNS): 0.0382 µM | TGI (SF-295 CNS): 1.49 µM | GI50 (786-0 renal): 0.61 µM | TGI (786-0 renal): 2.16 µM | GI50 (TK-10 renal): 1.74 µM | TGI (TK-10 renal): 3.72 µM | GI50 (OVCAR-8 ovarian): 0.29 µM | TGI (OVCAR-8 ovarian): 3.62 µM | GI50 (SNB-19 CNS): 0.146 µM | TGI (SNB-19 CNS): 1.54 µM | GI50 (SF-539 CNS): 0.219 µM | TGI (SF-539 CNS): 1.31 µM | GI50 (M14 melanoma): 0.467 µM | TGI (M14 melanoma): 2.08 µM | GI50 (NCI-H460 lung): 0.0462 µM | TGI (NCI-H460 lung): 1.14 µM | GI50 (HCC-2998 colon): 0.101 µM | TGI (HCC-2998 colon): 0.447 µM | GI50 (NCI-H23 lung): 0.353 µM | TGI (NCI-H23 lung): 2.39 µM | GI50 (CCRF-CEM leukemia): 0.038 µM | TGI (CCRF-CEM leukemia): 0.442 µM | GI50 (SR leukemia): 0.0184 µM | TGI (SR leukemia): 1.26 µM | GI50 (HCT-116 colon): 0.199 µM | TGI (HCT-116 colon): 1.59 µM | GI50 (UACC-62 melanoma): 0.109 µM | TGI (UACC-62 melanoma): 1.39 µM | GI50 (NCI/ADR-RES ovarian): 0.359 µM | TGI (NCI/ADR-RES ovarian): 3.19 µM | GI50 (OVCAR-5 ovarian): 0.705 µM | TGI (OVCAR-5 ovarian): 1.86 µM | GI50 (KM12 colon): 1.2 µM | TGI (KM12 colon): 3.89 µM | GI50 (PC-3 prostate): 0.317 µM | TGI (PC-3 prostate): 1.95 µM | GI50 (SN12C renal): 0.261 µM | TGI (SN12C renal): 1.82 µM | GI50 (HOP-62 NSCLC): 0.259 µM | TGI (HOP-62 NSCLC): 1.79 µM | GI50 (U251 CNS): 0.0718 µM | TGI (U251 CNS): 0.497 µM | GI50 (MOLT-4 leukemia): 0.0492 µM | GI50 (HS 578T breast): 1.41 µM | TGI (HS 578T breast): 3.41 µM | GI50 (UO-31 renal): 0.0605 µM | TGI (UO-31 renal): 1.44 µM | GI50 (IGROV1 ovarian): 0.0712 µM | TGI (IGROV1 ovarian): 1.24 µM | GI50 (RXF 393 renal): 0.906 µM | TGI (RXF 393 renal): 2.22 µM | GI50 (SNB-75 CNS): 0.288 µM | TGI (SNB-75 CNS): 1.24 µM | GI50 (SK-MEL-28 melanoma): 0.975 µM | TGI (SK-MEL-28 melanoma): 2.59 µM | GI50 (LOX IMVI melanoma): 0.0696 µM | TGI (LOX IMVI melanoma): 1.08 µM | GI50 (DU-145 prostate): 0.11 µM | TGI (DU-145 prostate): 1.41 µM | GI50 (SW-620 colon): 0.0291 µM | TGI (SW-620 colon): 0.568 µM | GI50 (OVCAR-4 ovarian): 0.0912 µM | TGI (OVCAR-4 ovarian): 0.257 µM | GI50 (HL-60(TB) leukemia): 1.37 µM | TGI (HL-60(TB) leukemia): 3.56 µM | GI50 (UACC-257 melanoma): 0.637 µM | TGI (UACC-257 melanoma): 2.43 µM | GI50 (RPMI-8226 leukemia): 0.099 µM | TGI (RPMI-8226 leukemia): 0.815 µM | GI50 (SK-MEL-5 melanoma): 0.248 µM | TGI (SK-MEL-5 melanoma): 1.35 µM | GI50 (A498 renal): 1.09 µM | TGI (A498 renal): 2.44 µM | GI50 (SK-OV-3 ovarian): 0.314 µM | TGI (SK-OV-3 ovarian): 1.92 µM | GI50 (A549 NSCLC): 0.223 µM | TGI (A549 NSCLC): 2.18 µM | GI50 (HOP-92 NSCLC): 1.08 µM | TGI (HOP-92 NSCLC): 2.46 µM | GI50 (BT-549 breast): 0.847 µM | TGI (BT-549 breast): 2.29 µM | GI50 (CAKI-1 renal): 0.0285 µM | TGI (CAKI-1 renal): 1.54 µM | GI50 (SK-MEL-2 melanoma): 0.0534 µM | TGI (SK-MEL-2 melanoma): 1.29 µM | GI50 (ACHN renal): 0.0699 µM | TGI (ACHN renal): 1.18 µM | GI50 (HT29 colon): 0.0718 µM | TGI (HT29 colon): 0.562 µM
